The source of these data is patent US7078209B2, “CAK inhibitors and uses thereof” (Vertex Pharmaceuticals Incorporated, priority 2001, dated 2006).

A word on the Ki: it is the dissociation constant of the complex between target and ligand, obtained from inhibition or displacement. Read a high Ki as a looser hold on the target.

This test deals with CDK activating kinase (CAK) from Candida albicans (Candida albicans, UniProt A0A1D8PH53). The test is described as follows: Candida albicans CAK kinase assay: phosphorylation of human CDK2 with 33P labeled ATP. It is filed as biochemical. As to conditions: 2 nM CAK, 0.3 μM CDK2·FSBA, 10 μM ATP, room temperature, pH 7.5. The protocol: Activity of CDK activating kinase (CAK) from Candida albicans was measured by following the phosphorylation of human cyclin dependent kinase 2 (CDK 2) with ^33P labeled ATP. Reactions were carried out at room temperature in 100 mM HEPES, pH 7.5, 1 mM MgCl2, 100 mM NaCl and 1 mM DTT. Final concentrations of CAK and CDK2 were 2 nM and 300 nM, respectively. The CDK-2 substrate was inactivated with 5′ fluorosulfonylbenzoyladenosine (FSBA) to oblate its intrinsic ATPase activity. Test compounds in DMSO (final concentrations 30 μM, 1.5% DMSO) were first incubated with CAK and CDK2 for 40 minutes, then the reaction initiated by addition of ^33P ATP (final concentration 10 μM, specific activity=[…], NEN, Boston, Mass.). The reaction was allowed to proceed for 40 minutes and quenched by addition of 10% TCA containing 250 mM ATP. The quenched reaction was harvested onto GF/C glass fiber filter plates (Packard, Meriden, Conn.) using a Tomtec 9600 cell harvester (Tomtec, Hamden, Conn.), washed with 5% TCA and water. The plates were then treated with 50 μl of scintillation fluid and counted using a Packard top count (Packard, Meriden, Conn.). Ki values for inhibitory compounds were determined using the same assay at a series of compound concentrations.
Chain of CDK activating kinase (CAK) from Candida albicans (A0A1D8PH53 entry or part of it): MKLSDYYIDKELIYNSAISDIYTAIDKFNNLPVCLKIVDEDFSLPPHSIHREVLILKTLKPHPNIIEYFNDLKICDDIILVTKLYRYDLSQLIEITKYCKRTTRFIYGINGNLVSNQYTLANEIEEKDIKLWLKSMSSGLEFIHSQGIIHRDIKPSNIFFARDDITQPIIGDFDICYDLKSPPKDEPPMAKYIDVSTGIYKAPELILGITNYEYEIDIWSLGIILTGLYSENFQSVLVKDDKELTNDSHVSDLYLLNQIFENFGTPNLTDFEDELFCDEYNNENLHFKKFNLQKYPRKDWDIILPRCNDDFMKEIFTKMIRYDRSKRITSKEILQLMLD
• 100 mM HEPES, pH 7.5 • 1 mM MgCl2 • 100 mM NaCl • 1 mM DTT • 2 nM CAK • 0.3 μM CDK2·FSBA • 1.5% DMSO (compounds are dissolved in DMSO) • 10 μM ATP (specific activity·1.25e9 μCi/mol ATP)
The compound `N#Cc1c(N)c(C(=O)c2ccc3ccccc3c2)n2ccccc12` [Compound 4] yielded a Ki of 540 nM.
Consider `N#Cc1c(N)c(C(=O)c2ccc(F)c(F)c2)n2ccccc12` [Compound 8], for which affinity was put at a Ki of 1000 nM. This Ki is about 1.9-fold higher than that of the compound before.
`N#Cc1c(N)c(C(=O)c2ccc(Br)cc2)n2ccccc12` [Compound 11] yielded a Ki of 1900 nM.
Under `N#Cc1c(N)c(C(=O)c2cccc(Cl)c2)n2ccccc12` [Compound 3] stands 290 nM; under `N#Cc1c(N)c(C(=O)c2cccc(I)c2)n2ccccc12` [Compound 1], 60 nM.
Under `N#Cc1c(N)c(C(=O)c2ccc(F)cc2)n2ccccc12` [Compound 6] stands 880 nM; under `N#Cc1c(N)c(C(=O)c2ccc(Cl)c(Cl)c2)n2ccccc12` [Compound 5], 640 nM; under `COc1ccccc1C(=O)c1c(N)c(C#N)c2ccccn12` [Compound 7], 940 nM.
Under `N#Cc1c(N)c(C(=O)c2ccc(OC(F)(F)F)cc2)n2ccccc12` [Compound 10] stands 1500 nM; under `COc1ccc(C(=O)c2c(N)c(C#N)c3ccccn23)cc1` [Compound 12], 2400 nM.
`N#Cc1c(N)c(C(=O)c2ccc(Cl)cc2)n2ccccc12` [Compound 9]: the inhibitory constant (Ki) is 1300 nM. This Ki is about 1.8-fold lower than that of the compound before.
Under `CC(=O)Nc1c(C#N)c2ccccn2c1C(=O)c1ccc(F)cc1` [Compound 13] stands > 30000 nM; under `COc1cccc(C(=O)c2c(N)c(C#N)c3ccccn23)c1` [Compound 2], 210 nM.
